How the values were obtained:
Experiment in all cases: relative viability (nuclei count vs DMSO), 5 days (fraction); higher = more cells survive
NCI-H2126 = test system: NCI-H2126
Method in brief: (§1)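 Dosing by pin tool came one day after lung cancer cell lines were seeded in 1536-well plates, using either one drug or a fixed anchor-drug dose plus five library-drug doses (not always all listed) in √10 steps. After 5 days, nuclei were counted on 4× images. Relative viability is treated-well nuclei count divided by vehicle-well nuclei count, and values are medians of duplicate plates.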

NCI-H23 = test system: NCI-H23
Method in brief: as §1

SW 1573 = test system: SW 1573
Method in brief: as §1

LU99A = test system: LU99A
Method in brief: as §1

NCI-H3122 = test system: NCI-H3122
Method in brief: as §1

LOU-NH91 = test system: LOU-NH91
Method in brief: as §1

SW 900 = test system: SW 900
Method in brief: as §1

NCI-H1666 = test system: NCI-H1666
Method in brief: as §1

LK-2 = test system: LK-2
Method in brief: as §1

ChaGo-K-1 = test system: ChaGo-K-1
Method in brief: as §1

EMC-BAC-2 = test system: EMC-BAC-2
Method in brief: as §1

RERF-LC-KJ = test system: RERF-LC-KJ
Method in brief: as §1

SK-LU-1 = test system: SK-LU-1
Method in brief: as §1

HCC-827 = test system: HCC-827
Method in brief: as §1

EPLC-272H = test system: EPLC-272H
Method in brief: as §1

HCC-78 = test system: HCC-78
Method in brief: as §1

LXF-289 = test system: LXF-289
Method in brief: as §1

NCI-H2405 = test system: NCI-H2405
Method in brief: as §1

NCI-H2085 = test system: NCI-H2085
Method in brief: as §1

LCLC-103H = test system: LCLC-103H
Method in brief: as §1

NCI-H322M = test system: NCI-H322M
Method in brief: as §1

NCI-H1975 = test system: NCI-H1975
Method in brief: as §1

`CC1(C)CCC(c2ccc(Cl)cc2)=C(CN2CCN(c3ccc(C(=O)NS(=O)(=O)c4ccc(N[C@H](CCN5CCOCC5)CSc5ccccc5)c(S(=O)(=O)C(F)(F)F)c4)cc3)CC2)C1` [Navitoclax] + O=C(CCCCCCC(=O)Nc1ccccc1)NO [Vorinostat] (partner 1 µM) showed a relative viability (NCI-H2126; first compound 0.005 µM) of 0.789, a relative viability (NCI-H2126; first compound 0.01581 µM) of 0.875 and a relative viability (NCI-H2126; first compound 0.05 µM) of 0.795. The relative viability (NCI-H2126; first compound 0.1581 µM) was 0.761, the relative viability (NCI-H2126; first compound 0.5 µM) was 0.681 and the relative viability (NCI-H23; first compound 0.005 µM) was 0.594. For the same compound, the relative viability (NCI-H23; first compound 0.01581 µM) was 0.468, the relative viability (NCI-H23; first compound 0.05 µM) was 0.505 and the relative viability (NCI-H23; first compound 0.1581 µM) was 0.478. The relative viability (NCI-H23; first compound 0.5 µM) was 0.544, the relative viability (SW 1573; first compound 0.005 µM) was 0.607 and the relative viability (SW 1573; first compound 0.01581 µM) was 0.9. The relative viability (SW 1573; first compound 0.05 µM) was 0.683, the relative viability (SW 1573; first compound 0.1581 µM) was 0.475 and the relative viability (SW 1573; first compound 0.5 µM) was 0.597. For the same compound, the relative viability (LU99A; first compound 0.005 µM) was 0.487, the relative viability (LU99A; first compound 0.01581 µM) was 0.451 and the relative viability (LU99A; first compound 0.1581 µM) was 0.539. It also gave a relative viability (LU99A; first compound 0.5 µM) of 0.469, a relative viability (NCI-H3122; first compound 0.005 µM) of 1.05 and a relative viability (NCI-H3122; first compound 0.01581 µM) of 0.807. For the same compound, the relative viability (NCI-H3122; first compound 0.05 µM) was 1.06, the relative viability (NCI-H3122; first compound 0.1581 µM) was 1.02 and the relative viability (NCI-H3122; first compound 0.5 µM) was 0.839. For the same compound, the relative viability (LOU-NH91; first compound 0.005 µM) was 0.956, the relative viability (LOU-NH91; first compound 0.01581 µM) was 0.925 and the relative viability (LOU-NH91; first compound 0.05 µM) was 0.791. The relative viability (LOU-NH91; first compound 0.1581 µM) was 0.639, the relative viability (LOU-NH91; first compound 0.5 µM) was 0.437 and the relative viability (SW 900; first compound 0.005 µM) was 0.432. It also gave a relative viability (SW 900; first compound 0.01581 µM) of 0.573, a relative viability (SW 900; first compound 0.1581 µM) of 0.478 and a relative viability (SW 900; first compound 0.5 µM) of 0.365. For the same compound, the relative viability (NCI-H1666; first compound 0.005 µM) was 1, the relative viability (NCI-H1666; first compound 0.01581 µM) was 1.04 and the relative viability (NCI-H1666; first compound 0.05 µM) was 1.03. The relative viability (NCI-H1666; first compound 0.1581 µM) was 0.999, the relative viability (NCI-H1666; first compound 0.5 µM) was 1.05 and the relative viability (LK-2; first compound 0.005 µM) was 0.293. For the same compound, the relative viability (LK-2; first compound 0.01581 µM) was 0.33, the relative viability (LK-2; first compound 0.05 µM) was 0.367 and the relative viability (LK-2; first compound 0.1581 µM) was 0.307. For the same compound, the relative viability (LK-2; first compound 0.5 µM) was 0.277, the relative viability (ChaGo-K-1; first compound 0.005 µM) was 0.789 and the relative viability (ChaGo-K-1; first compound 0.01581 µM) was 0.786. It also gave a relative viability (ChaGo-K-1; first compound 0.05 µM) of 0.496, a relative viability (ChaGo-K-1; first compound 0.1581 µM) of 0.759 and a relative viability (ChaGo-K-1; first compound 0.5 µM) of 0.781. For the same compound, the relative viability (EMC-BAC-2; first compound 0.005 µM) was 0.413, the relative viability (EMC-BAC-2; first compound 0.01581 µM) was 0.507 and the relative viability (EMC-BAC-2; first compound 0.05 µM) was 0.548. It also gave a relative viability (EMC-BAC-2; first compound 0.1581 µM) of 0.422, a relative viability (EMC-BAC-2; first compound 0.5 µM) of 0.418 and a relative viability (RERF-LC-KJ; first compound 0.005 µM) of 0.718. The relative viability (RERF-LC-KJ; first compound 0.01581 µM) was 0.654, the relative viability (RERF-LC-KJ; first compound 0.05 µM) was 0.645 and the relative viability (RERF-LC-KJ; first compound 0.1581 µM) was 0.673. It also gave a relative viability (RERF-LC-KJ; first compound 0.5 µM) of 0.622, a relative viability (SK-LU-1; first compound 0.005 µM) of 0.787 and a relative viability (SK-LU-1; first compound 0.01581 µM) of 0.776. It also gave a relative viability (SK-LU-1; first compound 0.05 µM) of 0.689, a relative viability (SK-LU-1; first compound 0.1581 µM) of 0.627 and a relative viability (SK-LU-1; first compound 0.5 µM) of 0.516. It also gave a relative viability (HCC-827; first compound 0.005 µM) of 0.951, a relative viability (HCC-827; first compound 0.01581 µM) of 0.902 and a relative viability (HCC-827; first compound 0.05 µM) of 0.619. For the same compound, the relative viability (HCC-827; first compound 0.1581 µM) was 0.77, the relative viability (HCC-827; first compound 0.5 µM) was 0.907 and the relative viability (EPLC-272H; first compound 0.005 µM) was 0.521. For the same compound, the relative viability (EPLC-272H; first compound 0.01581 µM) was 0.561, the relative viability (EPLC-272H; first compound 0.05 µM) was 0.292 and the relative viability (EPLC-272H; first compound 0.1581 µM) was 0.385. For the same compound, the relative viability (EPLC-272H; first compound 0.5 µM) was 0.282, the relative viability (HCC-78; first compound 0.005 µM) was 0.415 and the relative viability (HCC-78; first compound 0.01581 µM) was 0.49. The relative viability (HCC-78; first compound 0.05 µM) was 0.429, the relative viability (HCC-78; first compound 0.1581 µM) was 0.431 and the relative viability (HCC-78; first compound 0.5 µM) was 0.431. The relative viability (LXF-289; first compound 0.005 µM) was 0.752, the relative viability (LXF-289; first compound 0.01581 µM) was 0.842 and the relative viability (LXF-289; first compound 0.05 µM) was 0.697. For the same compound, the relative viability (LXF-289; first compound 0.1581 µM) was 0.799, the relative viability (LXF-289; first compound 0.5 µM) was 0.814 and the relative viability (NCI-H2405; first compound 0.005 µM) was 0.979. For the same compound, the relative viability (NCI-H2405; first compound 0.01581 µM) was 1.09, the relative viability (NCI-H2405; first compound 0.05 µM) was 1.11 and the relative viability (NCI-H2405; first compound 0.1581 µM) was 1. For the same compound, the relative viability (NCI-H2405; first compound 0.5 µM) was 0.811, the relative viability (NCI-H2085; first compound 0.005 µM) was 0.817 and the relative viability (NCI-H2085; first compound 0.01581 µM) was 0.998. It also gave a relative viability (NCI-H2085; first compound 0.05 µM) of 0.568, a relative viability (NCI-H2085; first compound 0.1581 µM) of 0.844 and a relative viability (NCI-H2085; first compound 0.5 µM) of 0.834. For the same compound, the relative viability (LCLC-103H; first compound 0.005 µM) was 0.73, the relative viability (LCLC-103H; first compound 0.01581 µM) was 0.928 and the relative viability (LCLC-103H; first compound 0.05 µM) was 0.96. The relative viability (LCLC-103H; first compound 0.1581 µM) was 0.807, the relative viability (LCLC-103H; first compound 0.5 µM) was 0.665 and the relative viability (NCI-H322M; first compound 0.005 µM) was 1.02. It also gave a relative viability (NCI-H322M; first compound 0.01581 µM) of 1.06, a relative viability (NCI-H322M; first compound 0.05 µM) of 0.908 and a relative viability (NCI-H322M; first compound 0.1581 µM) of 0.843. For the same compound, the relative viability (NCI-H322M; first compound 0.5 µM) was 0.999, the relative viability (NCI-H1975; first compound 0.005 µM) was 0.718 and the relative viability (NCI-H1975; first compound 0.01581 µM) was 0.765. It also gave a relative viability (NCI-H1975; first compound 0.05 µM) of 0.752, a relative viability (NCI-H1975; first compound 0.1581 µM) of 0.718 and a relative viability (NCI-H1975; first compound 0.5 µM) of 0.592.

— the supplement of paper PMC10307832
